From the NIST ThermoML archive (doi:10.1016/j.fluid.2009.04.009)
Numbers after ± are expanded uncertainties.

Experiment: xn = mol fraction of the nth substance listed
Conditions: Liquid, Single crystal variable path ultrasonic interferometer operating at 2 MHz

CN(C)C=O [dimethylformamide] + CO
speed of sound (303 K, Frequency=2 MHz / Mass density=801.17 kg/m3, x1 = 0.4): 1201.2 ± 0.4 m/s | speed of sound (303 K, Frequency=2 MHz / Mass density=818.7 kg/m3, x1 = 0.2): 1133.8 ± 0.3 m/s | speed of sound (303 K, Frequency=2 MHz / Mass density=853.8 kg/m3, x1 = 0.6): 1249.2 ± 0.3 m/s | speed of sound (303 K, Frequency=2 MHz / Mass density=888.88 kg/m3, x1 = 0.8): 1339.4 ± 0.5 m/s | speed of sound (303 K, Frequency=2 MHz / Mass density=953.21 kg/m3, x1 = 1): 1469.8 ± 0.8 m/s | speed of sound (308 K, Frequency=2 MHz / Mass density=794.11 kg/m3, x1 = 0.4): 1187.4 ± 0.4 m/s | speed of sound (308 K, Frequency=2 MHz / Mass density=811.76 kg/m3, x1 = 0.2): 1126.8 ± 0.3 m/s | speed of sound (308 K, Frequency=2 MHz / Mass density=852.94 kg/m3, x1 = 0.6): 1243.4 ± 0.4 m/s | speed of sound (308 K, Frequency=2 MHz / Mass density=888.23 kg/m3, x1 = 0.8): 1320 ± 0.3 m/s | speed of sound (308 K, Frequency=2 MHz / Mass density=952.94 kg/m3, x1 = 1): 1433.2 ± 0.6 m/s | speed of sound (313 K, Frequency=2 MHz / Mass density=786.98 kg/m3, x1 = 0.4): 1169.2 ± 0.4 m/s | speed of sound (313 K, Frequency=2 MHz / Mass density=798.81 kg/m3, x1 = 0.2): 1110.8 ± 0.4 m/s | speed of sound (313 K, Frequency=2 MHz / Mass density=846.15 kg/m3, x1 = 0.6): 1219.4 ± 0.5 m/s | speed of sound (313 K, Frequency=2 MHz / Mass density=881.65 kg/m3, x1 = 0.8): 1313.2 ± 0.4 m/s | speed of sound (313 K, Frequency=2 MHz / Mass density=952.66 kg/m3, x1 = 1): 1418 ± 0.4 m/s | speed of sound (318 K, Frequency=2 MHz / Mass density=773.8 kg/m3, x1 = 0.4): 1152 ± 0.4 m/s | speed of sound (318 K, Frequency=2 MHz / Mass density=785.71 kg/m3, x1 = 0.2): 1097.7 ± 0.2 m/s | speed of sound (318 K, Frequency=2 MHz / Mass density=833.33 kg/m3, x1 = 0.6): 1208 ± 0.3 m/s | speed of sound (318 K, Frequency=2 MHz / Mass density=875 kg/m3, x1 = 0.8): 1275.4 ± 0.5 m/s | speed of sound (318 K, Frequency=2 MHz / Mass density=952.38 kg/m3, x1 = 1): 1402.2 ± 0.5 m/s | speed of sound (323 K, Frequency=2 MHz / Mass density=754.49 kg/m3, x1 = 0.4): 1136 ± 0.3 m/s | speed of sound (323 K, Frequency=2 MHz / Mass density=778.44 kg/m3, x1 = 0.2): 1095.4 ± 0.3 m/s | speed of sound (323 K, Frequency=2 MHz / Mass density=803.35 kg/m3, x1 = 0.6): 1189 ± 0.3 m/s | speed of sound (323 K, Frequency=2 MHz / Mass density=868.26 kg/m3, x1 = 0.8): 1257.2 ± 0.4 m/s | speed of sound (323 K, Frequency=2 MHz / Mass density=952.09 kg/m3, x1 = 1): 1374.8 ± 0.6 m/s

CO [methanol] + CN(C)C=O
speed of sound (303 K, Frequency=2 MHz / Mass density=771.9 kg/m3, x2 = 0): 1089 ± 0.5 m/s | speed of sound (308 K, Frequency=2 MHz / Mass density=764.7 kg/m3, x2 = 0): 1069.6 ± 0.4 m/s | speed of sound (313 K, Frequency=2 MHz / Mass density=757.4 kg/m3, x2 = 0): 1057.2 ± 0.4 m/s | speed of sound (318 K, Frequency=2 MHz / Mass density=750 kg/m3, x2 = 0): 1033.2 ± 0.5 m/s | speed of sound (323 K, Frequency=2 MHz / Mass density=718.6 kg/m3, x2 = 0): 1008 ± 0.3 m/s
